Like-named read-outs stand apart in the source and are kept apart here.
Assays:
[1] = target: T1, PDE 2 enzyme isolated from human platelets (Homo sapiens, UniProt O00408); assay: PDE 2 enzyme scintillation proximity assay (SPA); type: biochemical
T1 construct: PDE 2 enzyme was isolated from human platelets; from tissue; host or cells: human platelets (pooled blood from multiple donors); HiTrap Q anion-exchange fraction eluting at about 325 mM NaCl
Description: PDE 2 enzyme was isolated from human platelets with approximately 1.4 L of blood from multiple donors used to make the platelet pellets. Platelets were resuspended in approximately 75 mL of lysis buffer [20 mM Tris pH 7.2, 5 mM MgCl2, 250 mM Sucrose, 1 mM DTT, 1 μL/2 mL Sigma Protease inhibitor #8340; Sigma-Aldrich; St. Louis, Mo.] and lysed by sonication at 4° C., with 3 rounds of 1 min bursts then spun at 4° C. overnight at 100,000×g. Cleared lysates were loaded to AKTA Explorer FPLC (Amersham Biosciences; Piscataway, N.J.) in a series of three chromatographic separations, with an average load volume of 25 mL. A 5 mL HiTrap Q anion exchange column (Amersham Biosciences) was used. […] Two major cGMP activity fractions (PDE 5 and PDE 2) were isolated and pooled separately. The PDE 2-pooled fraction total was approximately 40 mL which was dispensed in cryovials of 200 μl/vial and placed in storage at −80° C.
The inhibitory activity of the compounds of formula (I) on recombinant or isolated PDE 2, and other PDE's, was determined using the […] scintillation proximity assay (SPA) kits from Amersham International (Little Chalfont, England). The SPA assays were performed using 96 well plates. The PDE SPA yttrium silicate beads (Amersham Biosciences) bind preferentially to the linear nucleotide, GMP, compared to the cyclic nucleotide, cGMP. ^3H-cGMP was added to the reaction and when the product, ^3H-GMP, was in […] to the beads, the scintillant within the bead was excited, which was detected using a Packard scintillation counter (Perkin-Elmer Life Sciences; Boston, Mass.). The enzyme concentration used was in the linear range and the Km of the enzyme was determined (15 uM). The final substrate concentration was <1/3 of Km (1 μM) so that IC50 values would approximate the Ki values. The assay was validated using literature compounds as controls before testing compounds. Then, PDE catalytic activity measurements obtained in the presence of the test compound, and those obtained in the absence of the test compound, were compared and the lC50 value is determined. […]

[2] = system: femur (periosteal bone induction); assay: Rat periosteal injection model; type: in vivo; settings: daily local injection five times per week for two weeks; Day 15; male Sprague-Dawley rats
Description: Rats were anesthetized with isoflurane (2-3 min) in a conduction chamber located in a fume hood. The right hindlimb of each rat was shaved and cleaned. A 25 gauge needle attached to a syringe was pre-filled with a formulation of the test compound for local injection. The formulation was injected onto the subperiosteum of femur in a volume of 5-15 μL for 14 days. The rats were sacrificed after dosing, the femurs were collected, and then analyzed by radiography and dual-energy X-ray absorptiometry (DEXA).
The right femur of three-week old male Sprague-Dawley rats received a daily injection of vehicle or test compound five times per week for two weeks. On Day 15, all rats were sacrificed and the right femurs were collected for analysis. Periosteal bone induction was assessed using radiography and DEXA. […] The bone mineral content (BMC) of the injected region of the femur (area between lesser trochanter and mid-shaft of the femur) was assessed by DEXA comparing rats treated with test compound with those treated only with vehicle. In this model, N^4-(3,5-dimethoxy-benzyl)-N^2-(2-pyridin-4-yl-ethyl)-pyrido[2,3-d]pyrimidine-2,4-diamine, 2-(3-{3-[4-(3,4-dimethoxy-benzylamino)-pyrido[2,3-d]pyrimidin-2-ylamino]-propyl}-phenyl)-propan-2-ol, and N^4-(3,4-dimethoxy-benzyl)-N^2-(3-phenyl-propyl)-pyrido[2,3-d]pyrimidine-2,4-diamine increased BMC by 34%, 49%, and 33% respectively. Additionally, 9-(1-acetyl-4-phenyl-butyl)-2-(3,4-dimethoxy-benzyl)-1,9-dihydropurin-6-one increased BMC by 20% in the aforementioned model.

[3] = system: fractured right femurs; assay: Rat transverse femoral fracture model; type: in vivo; settings: single 5 mg dose injected percutaneously into fracture site; three weeks after injection; male rats
Description: Male Sprague-Dawley rats at 3 to 4 months of age were used. The animals were anesthetized with ketamine and xylazine at doses of 100 and 10 mg/kg, respectively. The right hindlimb of each rat was shaved and cleaned. A 1 cm incision was made just lateral to the patella and the femoral condyle was exposed. A Kirschner wire (0.045″ in diameter) was introduced into the intramedullary canal through the intercondylar portion to serve as an internal stabilization. The muscle incision was closed with vicryl and the skin incision was closed with stainless steel wound clips. The mid-diaphysis of the pinned femur was fractured by means of a three-point bending device driven by a dropped weight. The rats were permitted full weight-bearing and unrestricted activity after awakening from anesthesia. The test compounds were administered on various days after surgery by percutaneous injection onto the fracture site. The animals were sacrificed after treatment and the femurs were collected for analysis. Fracture healing was evaluated by using radiography, histological, and biomechanical test (F. Bonnarens, et al., Journal of Orthopaedic Research, 2, 97-101 (1984).
Three month-old male rats were subjected to transverse fracture of their right femurs under general anesthesia. […] Three weeks after the injections, the rats were sacrificed and the right femurs were harvested and analyzed. […]

[4] = SPA, 1 μM substrate, read-out: PDE 2 Inhibition

T1 sequence (O00408 whole entry): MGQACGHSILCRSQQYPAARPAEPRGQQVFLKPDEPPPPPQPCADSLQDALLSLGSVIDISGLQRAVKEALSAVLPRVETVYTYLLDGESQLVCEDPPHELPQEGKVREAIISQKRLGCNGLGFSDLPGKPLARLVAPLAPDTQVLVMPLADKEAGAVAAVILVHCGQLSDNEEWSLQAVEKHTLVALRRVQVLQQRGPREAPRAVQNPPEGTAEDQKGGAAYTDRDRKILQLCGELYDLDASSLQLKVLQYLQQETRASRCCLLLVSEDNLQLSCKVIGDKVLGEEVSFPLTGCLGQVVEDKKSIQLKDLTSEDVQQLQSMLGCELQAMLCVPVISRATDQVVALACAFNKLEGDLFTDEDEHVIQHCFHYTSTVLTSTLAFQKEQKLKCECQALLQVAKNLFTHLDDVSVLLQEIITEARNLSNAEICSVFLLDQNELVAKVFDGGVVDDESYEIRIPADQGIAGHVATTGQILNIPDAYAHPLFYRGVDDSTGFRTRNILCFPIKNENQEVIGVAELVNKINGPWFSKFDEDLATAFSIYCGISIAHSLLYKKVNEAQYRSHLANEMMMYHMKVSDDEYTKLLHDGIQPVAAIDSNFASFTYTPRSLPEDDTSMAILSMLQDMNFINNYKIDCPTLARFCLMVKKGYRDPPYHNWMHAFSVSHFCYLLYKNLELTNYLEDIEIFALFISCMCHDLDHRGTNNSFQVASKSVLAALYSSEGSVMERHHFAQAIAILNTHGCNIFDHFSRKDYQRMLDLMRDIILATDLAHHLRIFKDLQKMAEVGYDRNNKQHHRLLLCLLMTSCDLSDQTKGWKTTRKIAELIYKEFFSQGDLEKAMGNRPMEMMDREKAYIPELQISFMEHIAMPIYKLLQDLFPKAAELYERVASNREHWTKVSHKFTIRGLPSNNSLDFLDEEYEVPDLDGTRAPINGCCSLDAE

SMILES	IC50 ([1]; PDE 2, read-out: IC50)	IC50 [1, 4]	melting point	bone mineral content (BMC) increase of injected region of femur by DEXA vs vehicle [2]	Force-to-failure increased compared to placebo [3]	stiffness increased compared to placebo [3]
COc1ccc(Cc2nc3c(ncn3C(CCCc3ccccc3)C(C)=O)c(=O)[nH]2)cc1OC (stereo not shown) [9-(1-acetyl-4-phenyl-butyl)-2-(3,4-dimethoxy-benzyl)-1,9-dihydropurin-6-one, reference compound]	3 nM			20%		
COc1cc(CNc2nc(NCCc3ccncc3)nc3ncccc23)cc(OC)c1 [Example 3, N^4-(3,5-Dimethoxy-benzyl)-N^2-(2-pyridin-4-yl-ethyl)-pyrido[2,3-d]pyrimidine-2,4-diamine]		250 to 1000 nM	234 to 235 °C	34%		
COc1ccc(CCNc2nc(NCc3cc(OC)cc(OC)c3)c3cccnc3n2)cc1 [Example 6, N^4-(3,5-Dimethoxy-benzyl)-N^2-[2-(4-methoxy-phenyl)-ethyl]-pyrido[2,3-d]pyrimidine-2,4-diamine]		250 to 1000 nM	88 to 89 °C			
COc1cc(CNc2nc(NCc3ccccc3)nc3ncccc23)cc(OC)c1 [Example 9, N^2-Benzyl-N^4-(3,5-dimethoxy-benzyl)-pyrido[2,3-d]pyrimidine-2,4-diamine]		250 to 1000 nM	84 to 85 °C			
COc1ccc(CNc2nc(NCCOc3ccccc3)nc3ncccc23)cc1OC [Example 19, N^4-(3,4-Dimethoxy-benzyl)-N^2-(2-phenoxy-ethyl)-pyrido[2,3-d]pyrimidine-2,4-diamine]		50 to 250 nM	227 to 228 °C			

Continued, in another order:

IC50 ([1]; PDE 2, read-out: IC50)	IC50 [1, 4]	melting point	SMILES	bone mineral content (BMC) increase of injected region of femur by DEXA vs vehicle [2]	Force-to-failure increased compared to placebo [3]	stiffness increased compared to placebo [3]
	250 to 1000 nM	204 to 205 °C	COc1ccc(CNc2nc(NCCCc3cccc(C(C)(C)O)c3)nc3ncccc23)cc1OC [Example 29, 2-(3-{3-[4-(3,4-Dimethoxy-benzylamino)-pyrido[2,3-d]pyrimidin-2-ylamino]-propyl}-phenyl)-propan-2-ol]	49%		
	250 to 1000 nM	181 to 182 °C	CCOc1cc(CNc2nc(NCCCc3ccccc3)nc3ncccc23)ccc1OC [Example 34, N^4-(3-Ethoxy-4-methoxy-benzyl)-N^2-(3-phenyl-propyl)-pyrido[2,3-d]pyrimidine-2,4-diamine]			
	250 to 1000 nM	198 to 199 °C	COc1ccc(CNc2nc(NCCCc3ccc(C(C)(C)O)cc3)nc3ncccc23)cc1OC [Example 21, 2-(4-{3-[4-(3,4-Dimethoxy-benzylamino)-pyrido[2,3-d]pyrimidin-2-ylamino]-propyl}-phenyl)-propan-2-ol]			
	50 to 250 nM	222 to 224 °C	COc1ccc(CNc2nc(NCCCc3ccc(C(O)C(F)(F)F)cc3)nc3ncccc23)cc1OC (stereo not shown) [Example 25, 1-(4-{3-[4-(3,4-Dimethoxy-benzylamino)-pyrido[2,3-d]pyrimidin-2-ylamino]-propyl}-phenyl)-2,2,2-trifluoro-ethanol]			
	250 to 1000 nM	190 to 192 °C	COc1ccc(CNc2nc(NCCCc3ccccc3)nc3ncccc23)cc1OC [Example 32, N^4-(3,4-Dimethoxy-benzyl)-N^2-(3-phenyl-propyl)-pyrido[2,3-d]pyrimidine-2,4-diamine]	33%	19%	62%
